According to patent publication US8445028B2, “Echinoderm-derived extracts, methods of preparation and uses thereof” (Rival, S.E.C., priority 2008, dated 2013):

assay: Oxygen Radical Absorption Capacity (ORAC) assay, fluorescein/AAPH, Trolox equivalents; format: biochemical; details: pure antioxidants, analyses performed in the present studies; Table IV
From the text: The Oxygen Radical Absorption Capacity (ORAC) assay is commonly used to measure the antioxidative capacity of various antioxidants. The ORAC assay provides an effective measure of antioxidant protection afforded to physiologically important biomolecules such as proteins. ORAC assays that may be used in the present invention include, for example, those described in U.S. Pat. No. 6,060,324, Methods in Enzymology (1999) 299: 50-62 (Cao and Prior), and Ou et al., 2001. J. Agric. Food Chem. 49: 4619-4626. […] Unless otherwise stated, the ORAC values are expressed as a TroloxTM equivalent value per gram of extract. Antioxidant properties of extracts were estimated using the Oxygen Radical Absorption Capacity (ORAC) method. The analytical procedure has been adapted from a published method (Ou et al., 2001. J. Agric. Food Chem. 49: 4619-4626), using 96-well microplates and a […] spectrofluorometer (Molecular Devices Corporation, Sunnyvale, Calif., USA). After appropriate dilution (typically between 1/100 to 1/1000), a 30-μl aliquot of the extract was added to each well in which 150 μl of 1.04 μM fluorescein and 30 μl of 162 mM 2,2'-azobis (2-amidinopropane) hydrochloride (AAPH) were previously added. TroloxTM (6-hydroxy-2,5,7,8-tetramethylchroman-2-carboxylic acid), a water soluble analog of vitamin E, was used as positive control, and phosphate buffer pH 7.4 was used as the analytical blank. The reactive mixture was incubated at 37.5° C. for 90 min. Final results were calculated as a function of the difference between the surface under the curves between blanks and extracts, and the antioxidant properties expressed as ORAC values in equivalent micromolar of TroloxTM by dry weight of the sample (μmol TE/g extract).

Q: With `CC1=C(/C=C/C(C)=C/C=C/C(C)=C/C=C/C=C(C)/C=C/C=C(C)/C=C/C2=C(C)CCCC2(C)C)C(C)(C)CCC1` [β-carotene] as the compound, how does the ORAC values read?
A: 3183 μmol TE/g dry extract

Q: For `Cc1c(C)c2c(c(C)c1O)CC[C@@](C)(CCC[C@H](C)CCC[C@H](C)CCCC(C)C)O2` [α-Tocopherol], which ORAC values is on record?
A: 5657 μmol TE/g dry extract

Q: For Catechin, which ORAC values is on record?
A: 16601 μmol TE/g dry extract
